# Laboratory results as given in patent publication US9133167B2, “Antibacterial quinoline derivatives” (JANSSEN PHARMACEUTICA NV, priority 2012, dated 2015).
# Test system: Staphylococcus aureus (ATCC29213)
# Experiment: Microtitre plate assay, IC90 for bacterial growth, Staphylococcus aureus strain
# Type: cell-based
# Details: 90% inhibitory concentration for bacterial growth, 24 hours at 37° C.
# Protocol: D.2. In-Vitro Method for Testing Compounds for Anti-Bacterial Activity Against a Non-Mycobacterial Strain
# Preparation of Bacterial Suspensions for Susceptibility Testing:
# The bacteria used in this study were grown overnight in flasks containing 100 ml Mueller-Hinton Broth (Becton Dickinson—cat. no. 275730) in sterile de-ionized water, with shaking, at 37° C. Stocks (0.5 ml/tube) were stored at −70° C. until use. Bacteria titrations were performed in microtiter plates to detect the TCID50, in which TCID50 represents the dilution that gives rise to bacterial growth in 50% of inoculated cultures. In general, an inoculum level of approximately 100 TCID50 was used for susceptibility testing.
# Anti Bacterial Susceptibility Testing: IC90 Determination
# Flat-bottom, sterile 96-well plastic microtiter plates were filled with 180 μl of sterile deionized water, supplemented with 0.25% BSA. Subsequently, stock solutions (7.8× final test concentration) of compounds were added in 45 μl volumes in column 2 Serial five-fold dilutions (45 μl in 180 μl) were made directly in the microtiter plates from column 2 to reach column 11. Untreated control samples with (column 1) and without (column 12) inoculum were included in each microtiter plate. Depending on the bacteria type, approximately 10 to 60 CFU per well of bacteria inoculum (100 TCID50), in a volume of 100 μl in 2.8× Mueller-Hinton broth medium, was added to the rows A to H, except column 12. The same volume of broth medium without inoculum was added to column 12 in row A to H. The cultures were incubated at 37° C. for 24 hours under a normal atmosphere (incubator with open air valve and continuous ventilation). At the end of incubation, one day after inoculation, the bacterial growth was quantitated fluorometrically. Therefore resazurin (0.6 mg/ml) was added in a volume of 20 μl to all wells 3 hours after inoculation, and the plates were re-incubated overnight. A change in colour from blue to pink indicated the growth of bacteria. The fluorescence was read in a computer-controlled fluorometer (Cytofluor Biosearch) at an excitation wavelength of 530 nm and an emission wavelength of 590 nm. The % growth inhibition achieved by the compounds was calculated according to standard methods. The IC90 (expressed in μg/ml) was defined as the 90% inhibitory concentration for bacterial growth. The results are shown in Table 7 for an assay using a Staphylococcus aureus strain.
row,Structure (SMILES),IC90 (μg/ml) STA B29213
1,COc1nc2ccc(-c3ccncc3)cc2cc1C(c1ccccc1)C1(O)CCN(Cc2ccccc2)CC1 (racemic) [Compound 31],>32.54 µg/mL
2,CSc1nc2ccccc2cc1C(c1ccccc1)C1(O)CCN(Cc2ccccc2)CC1 (racemic) [Compound 32],>28.69 µg/mL
3,COc1nc2ccc(Cl)cc2cc1C(c1ccccc1)C1(O)CCN(Cc2ccccc2)CC1 (racemic) [Compound 33],14.96 µg/mL
4,COc1ccc2nc(OC)c(C(c3ccccc3)C3(O)CCN(Cc4ccccc4)CC3)cc2c1 (racemic) [Compound 34],>29.57 µg/mL
5,COc1nc2ccc(-c3ccco3)cc2cc1C(c1ccccc1)C1(O)CCN(Cc2ccccc2)CC1 (racemic) [Compound 37],>31.84 µg/mL
6,CSc1nc2ccc(C)cc2cc1C(c1ccccc1)C1(O)CCN(Cc2ccccc2)CC1 (racemic) [Compound 41],>29.57 µg/mL
7,COc1nc2cc(Br)ccc2cc1C(c1ccccc1)C1(O)CCN(Cc2ccccc2)CC1 (racemic) [Compound 43],20.60 µg/mL
8,COc1nc2cccc(Br)c2cc1C(c1ccccc1)C1(O)CCN(Cc2ccccc2)CC1 (racemic) [Compound 44],>32.65 µg/mL
9,COc1nc2ccc(-c3cccnc3)cc2cc1C(c1ccc(Cl)cc1)C1(O)CCN(Cc2ccccc2)CC1.O=C(O)/C=C/C(=O)O (racemic) [Compound 50],>43.79 µg/mL
10,COc1nc2ccc(-c3ccccc3)cc2cc1C(c1ccc(Cl)cc1)C1(O)CCN(Cc2ccccc2)CC1.O=C(O)/C=C/C(=O)O (racemic) [Compound 51],>42.92 µg/mL
11,COc1nc2ccccc2cc1C(c1ccc(Cl)cc1)C1(O)CCN(Cc2ccccc2)CC1.O=C(O)/C=C/C(=O)O (racemic) [Compound 52],19.77 µg/mL
12,COc1nc2ccc(-c3ccco3)cc2cc1C(c1ccc(Cl)cc1)C1(O)CCN(Cc2ccccc2)CC1.O=C(O)/C=C/C(=O)O (racemic) [Compound 64],>43.02 µg/mL
13,COc1nc2ccc(Br)cc2cc1C(c1ccc(Cl)c(C(F)(F)F)c1)C1(O)CCN(Cc2ccccc2)CC1.O=C(O)/C=C/C(=O)O (racemic) [Compound 66],>49.51 µg/mL
14,COc1nc2ccc(Br)cc2cc1C(c1ccccc1Cl)C1(O)CCN(Cc2ccccc2)CC1.O=C(O)/C=C/C(=O)O (racemic) [Compound 67],>43.98 µg/mL
15,COc1nc2ccc(-c3ccccc3)cc2cc1C(c1ccc(Cl)cc1)C1(O)CCN(Cc2ccc(C)cc2)CC1.O=C(O)/C=C/C(=O)O (racemic) [Compound 69],>44.98 µg/mL
16,COc1nc2ccc(-c3ccco3)cc2cc1C(c1ccc(Cl)cc1)C1(O)CCN(Cc2ccc(C)cc2)CC1.O=C(O)/C=C/C(=O)O (racemic) [Compound 70],>44.71 µg/mL
17,COc1nc2ccc(-c3cccnc3)cc2cc1C(c1ccc(Cl)cc1)C1(O)CCN(Cc2ccc(C)cc2)CC1.O=C(O)/C=C/C(=O)O (racemic) [Compound 71],>44.46 µg/mL
18,COc1nc2ccc(Br)cc2cc1C(c1ccc(F)cc1)C1(O)CCN(Cc2ccccc2)CC1.O=C(O)/C=C/C(=O)O (racemic) [Compound 72],33.82 µg/mL
19,COc1nc2ccc(Br)cc2cc1C(c1ccccc1F)C1(O)CCN(Cc2ccccc2)CC1 (racemic) [Compound 83],>33.79 µg/mL
20,COc1nc2ccc(Br)cc2cc1C(c1cccc(F)c1)C1(O)CCN(Cc2ccccc2)CC1 (racemic) [Compound 84],>33.79 µg/mL
21,COc1nc2ccc(-c3ccccc3)cc2cc1C(c1ccc(Cl)cc1)C1(O)CCN(CCc2ccccc2)CC1.O=C(O)/C=C/C(=O)O (racemic) [Compound 89],>44.39 µg/mL
22,COc1nc2ccc(Br)cc2cc1C(c1ccccc1)C1(O)CCN(Cc2ccccc2)CC1 (stereo not drawn) [Compound 29],32.65 µg/mL
23,COc1nc2ccc(Br)cc2cc1C(c1ccccc1)C1(O)CCN(C(C)C)CC1 (stereo not drawn) [Compound 30],>29.62 µg/mL

row,Structure (SMILES),IC90 (μg/ml) STA B29213
1,COc1nc2ccc(Br)cc2cc1C(c1ccc(Cl)cc1)C1(O)CCN(Cc2ccccc2)CC1.O=C(O)/C=C/C(=O)O (stereo not drawn) [Compound 35],>43.03 µg/mL
2,COc1nc2ccc(Br)cc2cc1C(c1ccc(Cl)cc1)C1(O)CCN(Cc2ccccc2)CC1.O=C(O)C(=O)O (stereo not drawn) [Compound 36],32.85 µg/mL
3,COc1nc2ccc(Br)cc2cc1C(c1ccccc1)C1(O)CCN(Cc2cccc(C)c2)CC1 (stereo not drawn) [Compound 38],>33.54 µg/mL
4,COc1nc2ccc(Br)cc2cc1C(c1ccc(C)cc1)C1(O)CCN(Cc2ccccc2)CC1 (stereo not drawn) [Compound 39],33.54 µg/mL
5,COc1ccc(C(c2cc3cc(Br)ccc3nc2OC)C2(O)CCN(Cc3ccccc3)CC2)cc1 (stereo not drawn) [Compound 40],13.75 µg/mL
6,COc1nc2ccc(Br)cc2cc1C(c1ccc(Cl)cc1)C1(O)CCNCC1.O=C(O)/C=C/C(=O)O (stereo not drawn) [Compound 45],19.23 µg/mL
7,COc1nc2ccc(Br)cc2cc1C(c1ccc(Cl)cc1)C1(O)CCN(CCc2ccccc2)CC1 (stereo not drawn) [Compound 46],>35.71 µg/mL
8,COc1nc2ccc(Br)cc2cc1C(c1ccc(Cl)c(C)c1)C1(O)CCN(Cc2ccccc2)CC1 (stereo not drawn) [Compound 48],>35.71 µg/mL
9,COc1nc2ccc(Br)cc2cc1C(c1ccc(Cl)c(C)c1)C1(O)CCN(Cc2ccccc2)CC1.O=C(O)/C=C/C(=O)O (stereo not drawn) [Compound 49],>44.06 µg/mL
10,COc1nc2ccc(Br)cc2cc1C(c1ccc(Cl)c(F)c1)C1(O)CCN(Cc2ccccc2)CC1.O=C(O)/C=C/C(=O)O (stereo not drawn) [Compound 53],>44.89 µg/mL
11,COc1nc2ccc(Br)cc2cc1C(c1cc2ccccc2o1)C1(O)CCN(Cc2ccccc2)CC1.O=C(O)/C=C/C(=O)O (stereo not drawn) [Compound 54],>43.45 µg/mL
12,COc1nc2ccc(Br)cc2cc1C(c1ccc(F)c(C)c1)C1(O)CCN(Cc2ccccc2)CC1.O=C(O)/C=C/C(=O)O (stereo not drawn) [Compound 55],>43.09 µg/mL
13,COc1nc2ccc(Br)cc2cc1C(c1ccc2ccccc2c1)C1(O)CCN(Cc2ccccc2)CC1.O=C(O)/C=C/C(=O)O (stereo not drawn) [Compound 56],>44.60 µg/mL
14,COc1nc2ccc(Br)cc2cc1C(c1cccnc1)C1(O)CCN(Cc2ccccc2)CC1.O=C(O)/C=C/C(=O)O (stereo not drawn) [Compound 57],20.32 µg/mL
15,COc1nc2ccc(Br)cc2cc1C(c1cccc(Cl)c1)C1(O)CCN(Cc2ccccc2)CC1 (stereo not drawn) [Compound 59],17.45 µg/mL
16,COc1nc2ccc(Br)cc2cc1C(c1cccc(Cl)c1)C1(O)CCN(Cc2ccccc2)CC1.O=C(O)/C=C/C(=O)O (stereo not drawn) [Compound 60],>43.03 µg/mL
17,COc1nc2ccc(Br)cc2cc1C(c1ccc(Cl)cc1)C1(O)CCN(Cc2ccccc2C)CC1.O=C(O)/C=C/C(=O)O (stereo not drawn) [Compound 63],>44.79 µg/mL
18,COc1nc2ccc(Br)cc2cc1C(c1ccc(Cl)c(Cl)c1)C1(O)CCN(Cc2ccccc2)CC1.O=C(O)/C=C/C(=O)O (stereo not drawn) [Compound 65],>46.15 µg/mL
19,COc1nc2ccc(Br)cc2cc1C(c1ccco1)C1(O)CCN(Cc2ccccc2)CC1.O=C(O)/C=C/C(=O)O (stereo not drawn) [Compound 68],>40.66 µg/mL
20,C=Cc1ccc2nc(OC)c(C(c3ccc(Cl)cc3)C3(O)CCN(Cc4ccc(C)cc4)CC3)cc2c1.O=C(O)/C=C/C(=O)O (stereo not drawn) [Compound 73],>41.02 µg/mL
21,O=c1[nH]c2ccc(Br)cc2cc1C(c1ccc(Cl)cc1)C1(O)CCN(CCc2ccccc2)CC1 (stereo not drawn) [Compound 74],6.95 µg/mL
22,CN(C)c1nc2ccc(Br)cc2cc1C(c1ccc(Cl)cc1)C1(O)CCN(Cc2ccccc2)CC1.O=C(O)/C=C/C(=O)O (stereo not drawn) [Compound 75],34.89 µg/mL

# Same assay, conditions: 90% inhibitory concentration for bacterial growth, 24 hours at 37° C., read-out: IC90 (μg/ml) STA B29213
row,Structure (SMILES),IC90
1,COc1nc2ccc(-c3ccccc3)cc2cc1C(c1ccccc1)C1(O)CCN(Cc2ccccc2)CC1 (stereo not drawn) [Compound 4],> 32.5 µg/mL
2,COc1nc2ccc(Br)cc2cc1C(c1ccccc1)C1(O)CCN(CCc2ccccc2)CC1 (stereo not drawn) [Compound 5],8.42 µg/mL
3,COc1nc2ccc(Br)cc2cc1[C@@H](c1ccc(Cl)cc1)C1(O)CCN(Cc2ccccc2)CC1 [Compound 7],> 34.8 µg/mL
4,COc1nc2ccc(Br)cc2cc1[C@H](c1ccc(Cl)cc1)C1(O)CCN(Cc2ccccc2)CC1 [Compound 8],> 34.8 µg/mL
5,COc1nc2ccc(Br)cc2cc1C(c1ccc(Cl)cc1)C1(O)CCNCC1 (stereo not drawn) [Compound 14],11.6 µg/mL
6,COc1nc2ccc(Br)cc2cc1C(c1ccc(Cl)cc1)C1(O)CCN(C2CCN(Cc3ccccc3)CC2)CC1 (stereo not drawn) [Compound 15],11.3 µg/mL
